# Reference: patent US9272016B2, “Methods to enhance RNAi oligonucleotide delivery to respiratory epithelial cells” (University of Iowa Research Foundation, priority 2012, dated 2016)
# Where a SMILES comes first, the peptide text is derived from it. [ ]: non-standard residue; d: D form. Nle = CCCC[C@H](N)C(=O)O; d = 2'-deoxy (DNA); r = 2'-OH (RNA); {P} = phosphate
# Assays:
# Type in all cases: cell-based
# HPRT mRNA [1] = assay: Pretreatment of well-differentiated human airway epithelia before HPRT siRNA transfection, qPCR; details: for reduction in HPRT mRNA levels: 6 h drug pretreatment at Cmap or literature concentration, then siRNA-Transductin 24 h (data not shown); for decrease in HPRT mRNA levels: vs nontargeting controls (FIG. 5c)
# Description: (§1) For airway epithelia that were either well or poorly differentiated, transfection was done mostly according to the manufacturer's protocol. In all cases, the apical surface of epithelia was washed twice with PBS before adding the transfection mixture to the apical surface. The mixture was then left on the cells for 24 h for all transfection reagents. For PK1 cells, reverse transfection was performed in a 48-well plate by first adding the siRNA-RNAiMAX reagent mixture onto the plate and then adding the dispersed cells (40,000 cells) on top of the mixture and allowing the cells to adhere and establish growth for 24 h. Before some transfections, pretreatment of cells with various chemicals were performed: Keratinocyte Growth Factor (KGF; Prospec, East Brunswick, N.J.) 50 ng/ml added both apically and basolaterally for 24 h; EGTA 6 mM added apically for 30 m; N-Acetyl-L-Leucyl-L-Leucyl-L-Norleucinal (LLnL; ICN Biochemicals, Inc, Costa Mesa, Calif.) 40 μM added both apically and basolaterally for 24 hrs; human Epidermal Growth Factor (EGF; Sigma-Aldrich, St. Louis, Mo.) 100 μg/ml, added apically for 15 m.
# (§2) Total RNA was isolated using SV96 RNA isolation kit (Promega), according to manufacturer's protocol. Two hundred fifty ng of total RNA were reverse transcribed using oligo (dT) (Roche, Indianapolis, Ind.) and random hexamers (Invitrogen, Grand Island, N.Y.) and Superscript II (Invitrogen, Grand Island, N.Y.) according to manufacturer's instructions. One-fifteenth of the cDNA was then amplified and analyzed by Taqman assay in the 7900 Real Time PCR System (Applied Biosystems) using synthesized primer-probe pairs (IDT, Coralville, Iowa), reaction buffer and Immolase DNA polymerase (Bioline, Taunton, Mass.). The reaction mix was contained in a total volume of 10 μl and the reaction condition was an initial cycle of 95° C. for 10 min, then 40 cycles of 95° C. for 15 s and 60° C. for 1 min. All data were normalized to the internal standard, RPL4 mRNA for pig airway samples and SFRS9 mRNA for human airway samples. Absolute quantification of an mRNA target sequence within an unknown sample was determined by reference to a standard curve. The standard curve was based on the real-time PCR amplification of standard amounts of the specific gene in a control NC1 cDNA.
# (§3) Wortmannin was purchased from Sigma (St. Louis, Mo.) as a ready to use solution. […] Monensin was purchased from Sigma (St. Louis, Mo.) and was dissolved in water. For experiments with drugs, the cells were pre-treated with drugs for 6 h usually at a concentration that was used in the Cmap study (Lamb J et al., The connectivity map: Using gene-expression signatures to connect small molecules, genes, and disease. Science 2006; 313(5795):1929-1935) or in other published studies. After the drug treatment, the cells were transfected with siRNA as described before.
# HPRT mRNA [2] = assay: Pretreatment of well differentiated pig airway epithelia before HPRT siRNA transfection, qPCR; details: for reduction in HPRT mRNA levels: 6 h drug pretreatment at Cmap or literature concentration, then siRNA-Transductin 24 h (data not shown); for silencing of HPRT mRNA after pretreatment: well differentiated PAE, KGF 50 ng/ml 24 h, EGTA 6 mM 30 m, LLnL 40 μM 24 hrs, then 250 nM HPRT siRNA with RNAiMAX or Transductin
# Description: as §1, §2, §3
# human airway epithelia = assay: Confocal imaging of DIG-labeled siRNA uptake in human airway epithelia; details: cells transfected with DIG-siRNA, fluorescent images, species not stated (data not shown)
# Description: The primary human airway epithelia grown at air-liquid interface were transfected with the DIG-labeled siRNA at a concentration of 250 ng/ml after complexing with Transductin. The transfection mixture was left on the apical surface for 2 h. At the end of this period, the cells were fixed in 2% formaldehyde, permeabilized in 0.2% Triton-x-100 and blocked in 1% BSA for 1 h. The cells were then stained with mouse antibody to DIG (Roche Biochemicals) for 1 h followed by either Alexa 488 labeled goat anti-mouse secondary antibody for 1 h followed by Alexa 488 labeled rabbit […] antibody (Invitrogen) for 1 or in some cases with Alexa 564 goat anti-mouse secondary antibody for 1 h. The cells were finally stained with nuclear stain, ToPro 3 for 10 minutes. The filter, containing the cells, was removed from the culture insert by cutting the edges with razor blade and then mounted onto a slide by the use of Vectashield. The slide was visualized by confocal microscopy.
# CFTR = assay: LY-294002 pretreatment of human airway cells before CFTR siRNA transfection, qPCR; design: dose or concentration left out as unconfirmed; details: siRNA with Transductin, 24 h, vs nontargeting control (FIG. 12b)
# Description: (§4) For airway epithelia that were either well or poorly differentiated, transfection was done mostly according to the manufacturer's protocol. In all cases, the apical surface of epithelia was washed twice with PBS before adding the transfection mixture to the apical surface. The mixture was then left on the cells for 24 h for all transfection reagents. For PK1 cells, reverse transfection was performed in a 48-well plate by first adding the siRNA-RNAiMAX reagent mixture onto the plate and then adding the dispersed cells (40,000 cells) on top of the mixture and allowing the cells to adhere and establish growth for 24 h. […]
# (§5) Total RNA was isolated using SV96 RNA isolation kit (Promega), according to manufacturer's protocol. […] One-fifteenth of the cDNA was then amplified and analyzed by Taqman assay in the 7900 Real Time PCR System (Applied Biosystems) using synthesized primer-probe pairs (IDT, Coralville, Iowa), reaction buffer and Immolase DNA polymerase (Bioline, Taunton, Mass.). […] Absolute quantification of an mRNA target sequence within an unknown sample was determined by reference to a standard curve. […]
# (§6) Wortmannin was purchased from Sigma (St. Louis, Mo.) as a ready to use solution. […]
# SIN3A = assay: LY-294002 pretreatment of human airway cells before SIN3A siRNA transfection, qPCR; design: dose or concentration left out as unconfirmed; details: siRNA with Transductin, 24 h, vs nontargeting control (FIG. 12a)
# Description: as §4, §5, §6
# IL-8 = IL-8 siRNA transfection of poorly differentiated pig airway epithelia (2 and 5 days old), qPCR; details: for silencing of IL-8: 250 ng siRNA with Transductin, 24 h (FIG. 11a); for knockdown of IL-8: poorly differentiated pig airway cultures, siRNA 250 ng, 24 h (FIG. 9a)
# Description: as §1
# as §2, with “cDNA. PCR efficiency for all reactions was within the acceptable margin of 90-110%. All the results of the samples were presented as remaining mRNA level in comparison to the mRNA level in the control samples (NC1), which was normalized to 100%.” for “cDNA.”
# pig HPRT = assay: Dicer-substrate siRNA silencing in PK1 cells, qPCR of HPRT mRNA; details: reverse transfection with RNAiMAX, 1 nM and 10 nM siRNA, 24 h, vs nontargeting control NC1
# Description: as §4, §5
# siRNAs were designed and synthesized to specifically target pig HPRT (ssHPRT) and IL-8 (IL-8 1098 and IL-8 1466). […] Quantitative real-time PCR was performed to measure the extent of mRNA reduction. […]
molecule,measurement,setting,value
O=S(=O)(c1cccc2cnccc12)N1CCCNCC1 [fasudil],reduction in HPRT mRNA levels,HPRT mRNA [1]; human epithelia,no reduction
same,reduction in HPRT mRNA levels,HPRT mRNA [2]; pig epithelia,no reduction
O=C(O)CN(CCOCCOCCN(CC(=O)O)CC(=O)O)CC(=O)O [EGTA],silencing of HPRT mRNA after pretreatment,HPRT mRNA [2],did not result in silencing
"O=c1cc(N2CCOCC2)oc2c(-c3ccccc3)cccc12 [LY-294002, 2-morpholin-4-yl-8-phenylchromen-4-one]",siRNA uptake,human airway epithelia,improved siRNA uptake
same,range of silencing effects (inhibition),"HPRT mRNA [1]; human airway cells, several donors (data not shown)",10-55%
same,silencing of HPRT,"HPRT mRNA [1]; human epithelia, 10 μM for 6 h apically, vs nontargeting control (FIG. 5a)",about 40%
same,reduction in mRNA levels of CFTR,CFTR,20%
same,range of silencing effects (inhibition),"HPRT mRNA [2]; pig airway cells, several donors (data not shown)",10-20%
same,silencing of HPRT,"HPRT mRNA [2]; pig epithelia, 10 μM for 6 h apically, vs nontargeting control (FIG. 5b)",about 20%
same,reduction in mRNA levels of SIN3A,SIN3A,25%
CC(=O)O[C@H]1C(=O)[C@@]2(C)[C@H]([C@H](OC(=O)c3ccccc3)[C@]3(O)C[C@H](OC(=O)[C@H](O)[C@@H](NC(=O)c4ccccc4)c4ccccc4)C(C)=C1C3(C)C)[C@]1(OC(C)=O)CO[C@@H]1C[C@@H]2O [paclitaxel],reduction in HPRT mRNA levels,HPRT mRNA [1]; human epithelia,no reduction
same,reduction in HPRT mRNA levels,HPRT mRNA [2]; pig epithelia,no reduction
"IL-8 1098: Dicer-substrate siRNA against pig IL-8, SEQ ID NO: 5 and 6 (chain 1 GGCAAAUUGUUAAACGAACAGAATA; chain 2 UAUUCUGUUCGUUUAACAAUUUGCCAA; chain 1: sugars from the 5' end r23 d2, 5' {P}, backbone not given here; chain 2: RNA, backbone not given here)",silencing of IL-8,IL-8; 2-day old pig airway epithelia,Silencing of IL-8 is seen
same,silencing of IL-8,IL-8; 5-day old pig airway epithelia,not in 5-day old epithelia
same,knockdown of IL-8,IL-8,Knockdown of IL-8 is seen
"CCCC[C@@H](C=O)NC(=O)[C@H](CC(C)C)NC(=O)[C@H](CC(C)C)NC(C)=O [LLnL, N-Acetyl-L-Leucyl-L-Leucyl-L-Norleucinal] (Ac-Leu-Leu-[Nle]-aldehyde)",silencing of HPRT mRNA after pretreatment,HPRT mRNA [2],no effect on silencing
O=C1CC[C@@]2(O)[C@H]3Cc4ccc(O)c5c4[C@@]2(CCN3CC2CC2)[C@H]1O5 [naltrexone],reduction in HPRT mRNA levels,HPRT mRNA [1]; human epithelia,no reduction
same,reduction in HPRT mRNA levels,HPRT mRNA [2]; pig epithelia,no reduction
"ssHPRT: Dicer-substrate siRNA against pig HPRT, SEQ ID NO: 1 and 2 (chain 1 CCAGUAAAGUUAUCACAUGUUCUAG; chain 2 CUAGAACAUGUGAUAACUUUACUGNGG; chemistry not fully specified)",decrease of targeting mRNA (HPRT),pig HPRT,more than 90%
COC[C@H]1OC(=O)c2coc3c2[C@@]1(C)C1=C(C3=O)[C@@H]2CCC(=O)[C@@]2(C)C[C@H]1OC(C)=O [wortmannin],decrease in HPRT mRNA levels,"HPRT mRNA [1]; human airway cells, 10 nM pretreatment",about 20%
same,decrease in HPRT mRNA levels,"HPRT mRNA [1]; human airway cells, 40 nM pretreatment",~30%
C=C1CC[C@H](O)C/C1=C/C=C1\CCC[C@]2(C)[C@@H]([C@H](C)/C=C/[C@H](C)C(C)C)CC[C@@H]12 [ergocalciferol],reduction in HPRT mRNA levels,HPRT mRNA [1]; human epithelia,no reduction
same,reduction in HPRT mRNA levels,HPRT mRNA [2]; pig epithelia,no reduction
"IL-8 1466: Dicer-substrate siRNA against pig IL-8, SEQ ID NO: 7 and 8 (chain 1 UGAGUGUAACUAUAGAACAUUUACA; chain 2 UGUAAAUGUUCUAUAGUUACACUCACA; chain 1: sugars from the 5' end r23 d2, 5' {P}, backbone not given here; chain 2: RNA, backbone not given here)",silencing of IL-8,IL-8; 2-day old pig airway epithelia,Silencing of IL-8 is seen
same,silencing of IL-8,IL-8; 5-day old pig airway epithelia,not in 5-day old epithelia
same,knockdown of IL-8,IL-8,Knockdown of IL-8 is seen
